Reference: US6241963A, “Dopamine and serotonin transporter ligands and imaging agents” (priority 1996, dated 2001)
“And” between values parts separate entries of the source, which are not always exact repeats. Equal entries are not always repeated. Where two headings read alike, the source gives them in different places.

Columns and labels:
[1] = assay type: in vivo, Male Sprague-Dawley rats
Procedure, shortened: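 Male Sprague-Dawley rats (225-300 g) under ether or halothane anesthesia given 0.2 mL saline containing 50-100 μCi Tc-99m tracer via femoral vein, sacrificed at various times. Organs weighed and gamma counted; % dose per organ versus injected aliquots, with striatum/cerebellum ratio from % dose/gram; brain uptake at 2 min.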

dopamine transporter = assay: Blocking studies in rats (pretreatment or co-injection with competing agent); assay type: in vivo, Male Sprague-Dawley rats; settings: for ST/CB ratio after pretreatment with haldol (haloperidol) / ST/CB ratio after pretreatment with β-CIT (RTI-55): 60 min, pretreated 1 mg/kg iv, 5 min before tracer; for ST/CB ratio, control rats of blocking study: 60 min post-injection, no pretreatment
Protocol: (§1) Regional brain distribution in rats was obtained after an injection of 1.19a, 1.19b, 1.20a, 1.20b or 1.21. Samples from different brain regions (cortex, striatum, hippocampus, and cerebellum) were dissected, weighed and counted, and the percentage dose per gram of sample was calculated by comparing the sample counts with the count of the diluted initial dose. The uptake ratio of each region was obtained by dividing the percentage dose per gram of that region by that of the cerebellum. For blocking studies, rats were injected with either β-CIT or haloperidol (iv, 1 mg/Kg) 5 min prior to injection of 1.19a. The rats were dissected and brain tissue samples were counted as described above. The specific uptake of the compound was expressed as ratio of ST/CB (% dose/g of striatum divided by the same of cerebellum).
as §1, with “3.24 to 3.34.” for “1.19a, 1.19b, 1.20a, 1.20b or 1.21.”, “3.25.” for “1.19a.”, “above.” for “above. The specific uptake of the compound was expressed as ratio of ST/CB (% dose/g of striatum divided by the same of cerebellum).”

dopamine transporters = dopamine transporters (Rattus norvegicus, UniProt P23977); assay type: in vivo, Male Sprague-Dawley rats; settings: rats, iv
Sequence of dopamine transporters (P23977 whole entry): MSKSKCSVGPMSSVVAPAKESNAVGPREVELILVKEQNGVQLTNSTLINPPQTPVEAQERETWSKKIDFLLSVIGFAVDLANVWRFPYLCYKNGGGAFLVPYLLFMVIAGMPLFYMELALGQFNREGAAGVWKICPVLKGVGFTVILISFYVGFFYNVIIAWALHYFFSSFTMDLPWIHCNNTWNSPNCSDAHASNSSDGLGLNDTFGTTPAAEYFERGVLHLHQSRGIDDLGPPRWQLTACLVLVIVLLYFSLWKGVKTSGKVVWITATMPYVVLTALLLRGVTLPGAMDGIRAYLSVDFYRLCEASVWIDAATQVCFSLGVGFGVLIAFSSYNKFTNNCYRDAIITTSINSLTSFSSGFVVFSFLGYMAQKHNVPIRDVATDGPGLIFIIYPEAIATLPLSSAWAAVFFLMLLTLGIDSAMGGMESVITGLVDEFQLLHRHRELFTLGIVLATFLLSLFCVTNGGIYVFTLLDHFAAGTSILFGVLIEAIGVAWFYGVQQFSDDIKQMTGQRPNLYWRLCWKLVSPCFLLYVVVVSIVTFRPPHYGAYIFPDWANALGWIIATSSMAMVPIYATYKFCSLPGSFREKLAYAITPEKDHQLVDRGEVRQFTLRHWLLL
Protocol: For dopamine transporter imaging agents, the target area of the brain is the striatum, where dopamine transporters are highly concentrated. The cerebellum region is suitable for use as the background region, because it has no dopamine transporters. The specific uptake is measured by the ratio of % dose/gram of striatum divided by % dose/gram of cerebellum (ST/CB ratio)--the higher the value, the better the specific uptake, and the more promising as a dopamine transporter imaging agent.
as §1
The major criteria for determining the potential usefulness of in vivo dopamine transporter imaging agents are based on an animal biodistribution study. In this case, rats were used as an animal model. After an intravenous injection of the Tc-99m labeled compounds, the values of initial brain uptake (% dose/whole organ) at 2 minutes post intravenous injection are used to measure the ability to penetrate the intact blood-brain barrier. Compounds displaying higher brain uptake are the better agents (minimum requirement >0.1% dose in brain). The second criteria is the specific uptake in the striatum region of the brain, where dopamine transporters are located. The uptake value (% dose/gram) of the striatum (ST) is divided by the background area, cerebellum (CB; essentially devoid of dopamine transporter); the ratio of ST/CB is an indicator for specific uptake (minimum requirement for ST/CB >1.5). Five structurally similar tropane derivatives were examined in this biological study. (Tables 1.1 to 1.4).
as §1, with “3.24 to 3.34.” for “1.19a, 1.19b, 1.20a, 1.20b or 1.21.”, “3.25.” for “1.19a.”, “above.” for “above. The specific uptake of the compound was expressed as ratio of ST/CB (% dose/g of striatum divided by the same of cerebellum).”

[2] = Table 1.2, rats iv, percentage dose per organ

## CN1[C@H]2CC[C@@H]1[C@@H](C[N+]13CC[S][99Tc-]14(=[O])[S]CC[N]4CC3)[C@@H](c1ccc(Cl)cc1)C2 (stereo partly shown) [Compound 1.19a]
[1]; Table 1.2, *unexplained
  Biodistribution, Blood, 60 minutes*: 6.29 ± 1.12
  Biodistribution, Brain, 60 minutes*: 0.12 ± 0.01
  Biodistribution, Heart, 60 minutes*: 0.25 ± 0.05
  Biodistribution, Kidney, 60 minutes*: 1.76 ± 0.32
  Biodistribution, Liver, 60 minutes*: 20.35 ± 0.99
  Biodistribution, Lung, 60 minutes*: 1.76 ± 0.12
  Biodistribution, Muscle, 60 minutes*: 10.37 ± 0.48
  Biodistribution, Skin, 60 minutes*: 4.11 ± 0.29
  Biodistribution, Spleen, 60 minutes*: 0.51 ± 0.06
[1]; [2]
  Biodistribution, Blood, 2 minutes: 4.94 ± 0.46
  Biodistribution, Blood, 60 minutes: 2.14 ± 0.17
  Biodistribution, Brain, 2 minutes: 0.43 ± 0.16
  Biodistribution, Brain, 60 minutes: 0.12 ± 0.00
  Biodistribution, Heart, 2 minutes: 1.47 ± 0.16
  Biodistribution, Heart, 60 minutes: 0.19 ± 0.02
  Biodistribution, Kidney, 2 minutes: 5.13 ± 0.75
  Biodistribution, Kidney, 60 minutes: 3.06 ± 0.14
  Biodistribution, Liver, 2 minutes: 16.62 ± 2.11
  Biodistribution, Liver, 60 minutes: 17.67 ± 3.42
  Biodistribution, Lung, 2 minutes: 6.82 ± 0.37
  Biodistribution, Lung, 60 minutes: 1.86 ± 0.36
  Biodistribution, Muscle, 2 minutes: 10.84 ± 1.95
  Biodistribution, Muscle, 60 minutes: 10.28 ± 1.36
  Biodistribution, Skin, 2 minutes: 2.66 ± 0.35
  Biodistribution, Skin, 60 minutes: 3.96 ± 0.22
  Biodistribution, Spleen, 2 minutes: 0.42 ± 0.16
  Biodistribution, Spleen, 60 minutes: 0.45 ± 0.05
[1]; rats, iv, 2 min
  Brain uptake, 2 min: 0.43 ± 0.16 % dose/organ
[1]; rats, iv, 2 min, listed as TRODAT-1
  Brain uptake, 2 min: 0.425 ± 0.120 % dose/organ
[1]; rats, iv, 30 min
  Brain uptake, 30 min: 0.232 ± 0.021 % dose/organ
[1]; rats, iv, 60 min
  Brain uptake, 60 min: 0.12 ± 0.001 % dose/organ and 0.12 ± 0.00 % dose/organ
Dopamine transporter
  ST/CB ratio after pretreatment with haldol (haloperidol): 2.6
  ST/CB ratio after pretreatment with β-CIT (RTI-55): 1.0
  ST/CB ratio, control rats of blocking study: 2.66 and 2.6
Dopamine transporters; 2 min
  ST/CB ratio, 2 min: 0.93 ± 0.23
Dopamine transporters; 30 min
  ST/CB ratio, 30 min: 2.04 ± 0.18
Dopamine transporters; 30 min, listed as TRODAT-1
  ST/CB ratio, 30 min: 2.0
Dopamine transporters; 60 min
  ST/CB ratio, 60 min: 2.66 and 2.66 ± 0.01
Dopamine transporters; 120 min
  ST/CB ratio, 120 min: 3.90 ± 1.33
Dopamine transporters; 240 min
  ST/CB ratio, 240 min (4 hours): 4.07
Dopamine transporters; 360 min
  ST/CB ratio, 360 min: 2.97 ± 0.14

## COC(=O)C1C(c2ccc(Cl)cc2)CC2CCC1N2CC[S][99Tc-]12(=[O])[S]CC[N+]1(C)CC[S]2 [Compound 3.25, [^99m Tc] technetium, [methyl 3-(4-chlorophenyl)-8-(2-mercaptoethyl)-8-azabicyclo [3.2.1]octane-2-carboxylato-S][[2,2'-(methylimino)bis[ethanethiolato]](2-)-N,S,S']oxo]
[1]; Table 3.1, rats, iv, 2 min
  Brain Uptake (% dose), 2 min: 0.100 ± 0.068 % dose
[1]; Table 3.1, rats, iv, 30 min
  Brain Uptake (% dose), 30 min: 0.07 ± 0.003 % dose
[1]; rats, iv
  Biodistribution and washout, in words: cleared from muscle, while liver accumulation increased with time
[1]; rats, iv, 2 min
  Blood uptake, 2 min: 4.72 ± 1.37 % dose/organ
  Brain uptake, 2 min: 0.10 ± 0.02 % dose/organ
  Heart uptake, 2 min: 1.46 ± 0.37 % dose/organ
  Kidney uptake, 2 min: 5.67 ± 0.94 % dose/organ
  Liver uptake, 2 min: 13.51 ± 0.36 % dose/organ
  Lung uptake, 2 min: 6.41 ± 2.04 % dose/organ
  Muscle uptake, 2 min: 23.30 ± 3.82 % dose/organ
  Skin uptake, 2 min: 2.94 ± 0.36 % dose/organ
  Spleen uptake, 2 min: 0.36 ± 0.07 % dose/organ
[1]; rats, iv, 30 min
  Blood uptake, 30 min: 2.75 ± 0.62 % dose/organ
  Brain uptake, 30 min: 0.06 ± 0.02 % dose/organ
  Heart uptake, 30 min: 0.30 ± 0.04 % dose/organ
  Kidney uptake, 30 min: 3.10 ± 0.68 % dose/organ
  Liver uptake, 30 min: 29.61 ± 2.22 % dose/organ
  Lung uptake, 30 min: 2.09 ± 0.47 % dose/organ
  Muscle uptake, 30 min: 16.70 ± 3.62 % dose/organ
  Skin uptake, 30 min: 4.71 ± 1.27 % dose/organ
  Spleen uptake, 30 min: 0.61 ± 0.10 % dose/organ
[1]; rats, iv, 60 min
  Blood uptake, 60 min: 2.83 ± 0.42 % dose/organ
  Brain uptake, 60 min: 0.046 ± 0.002 % dose/organ
  Heart uptake, 60 min: 0.22 ± 0.23 % dose/organ
  Kidney uptake, 60 min: 2.87 ± 0.43 % dose/organ
  Liver uptake, 60 min: 32.15 ± 3.00 % dose/organ
  Lung uptake, 60 min: 1.26 ± 0.06 % dose/organ
  Muscle uptake, 60 min: 13.63 ± 0.99 % dose/organ
  Skin uptake, 60 min: 4.57 ± 0.65 % dose/organ
  Spleen uptake, 60 min: 0.50 ± 0.09 % dose/organ
[1]; rats, iv, 120 min
  Blood uptake, 120 min: 2.31 ± 0.27 % dose/organ
  Brain uptake, 120 min: 0.025 ± 0.002 % dose/organ
  Heart uptake, 120 min: 0.12 ± 0.013 % dose/organ
  Kidney uptake, 120 min: 2.74 ± 0.096 % dose/organ
  Liver uptake, 120 min: 35.37 ± 1.52 % dose/organ
  Lung uptake, 120 min: 0.69 ± 0.061 % dose/organ
  Muscle uptake, 120 min: 4.33 ± 1.20 % dose/organ
  Skin uptake, 120 min: 2.30 ± 0.082 % dose/organ
  Spleen uptake, 120 min: 0.58 ± 0.009 % dose/organ
Dopamine transporter
  ST/CB ratio after pretreatment with haldol (haloperidol): 2.6
  ST/CB ratio after pretreatment with β-CIT (RTI-55): 1.0
  ST/CB ratio, control rats of blocking study: 2.6
Dopamine transporters; 2 min
  Cerebellum, 2 min: 0.066 ± 0.017 % dose/g
  Cortex, 2 min: 0.060 ± 0.009 % dose/g
  Hippocampus, 2 min: 0.046 ± 0.005 % dose/g
  ST/CB ratio, 2 min: 0.82
  Striatum, 2 min: 0.054 ± 0.010 % dose/g
Dopamine transporters; 30 min
  Cerebellum, 30 min: 0.027 ± 0.006 % dose/g
  Cortex, 30 min: 0.038 ± 0.007 % dose/g
  Hippocampus, 30 min: 0.028 ± 0.008 % dose/g
  ST/CB ratio, 30 min: 2.2
  Striatum, 30 min: 0.060 ± 0.011 % dose/g
Dopamine transporters; 60 min
  Cerebellum, 60 min: 0.018 ± 0.001 % dose/g
  Cortex, 60 min: 0.026 ± 0.002 % dose/g
  Hippocampus, 60 min: 0.025 ± 0.003 % dose/g
  ST/CB ratio, 60 min: 3.5
  Striatum, 60 min: 0.063 ± 0.001 % dose/g
Dopamine transporters; 120 min
  Cerebellum, 120 min: 0.011 % dose/g
  Cortex, 120 min: 0.015 % dose/g
  Hippocampus, 120 min: 0.011 % dose/g
  ST/CB ratio, 120 min: 2.8
  Striatum, 120 min: 0.031 % dose/g
